The values that follow come from patent US11571481B2, “Peptide-linked drug delivery system” (priority 2020, dated 2023).

Entries after “also recorded” stand apart in the source; their conditions may differ. Where a SMILES comes first, the peptide text is derived from it. [ ]: non-standard residue; d: D form. The star is where a group is joined. X1 = COc1cc2cc(c1Cl)N(C)C(=O)C[C@H](OC(=O)[C@H](C)N(C)C(=O)CCS*)[C@]1(C)O[C@H]1[C@H](C)[C@@H]1C[C@@](O)(NC(=O)O1)[C@H](OC)/C=C/C=C(\C)C2; βAla = NCCC(=O)O; Mpa = O=C(O)CCS

Data set [1] is described as follows: Nephrotoxicity studies (urinary NGAL and KIM-1, kidney histology and IHC). In kind it is in vivo, BALB/c mice. The settings on record: for induction of KIM-1 and/or NGAL: i.v., at 3 days. The method, then: The level of the acute renal injury biomarkers, neutrophil gelatinase-associated lipocalin (NGAL) and kidney injury molecule-1 (KIM-1) in the urine samples, were measured using ELISA assays according to the manufacturer's instructions (R&D Systems, Minneapolis, Minn.). […] All the animals (n=3/group) were euthanized at the end of the treatment and the kidneys were collected and fixed in 10% neutral buffered formalin. The tissues were then processed, embedded in paraffin, sectioned, and stained with H&E. Immunohistochemistry (IHC) for kidney injury (NGAL and KIM-1) was also performed.

Data set [2] in a line: Fluorescence imaging of Cy-peptide analogues (whole body, urine, ex vivo organs). The settings on record: i.v. 0.5 nmol, images 1 and 4 h.
Procedure: Fluorescence imaging—Female SHO mice (Charles River Laboratories, Wilmington, Mass.) were administered with free Cyanine5.5 or Cy-peptide analogues (0.5 nmol of Cyanine5.5 content measured by UV absorbance at 680 nm) in a PBS (150 μL) via tail-vein injections (n=4/group). Real-time fluorescence imaging was performed using In vivo Xtreme imaging system (Bruker, Billerica, Mass.). Whole body fluorescence images were acquired 1 and 4 h post injection using the appropriate excitation (670 nm) and emission (750 nm) filters. The animals were then euthanized. The organs were excised to perform ex vivo fluorescence imaging. Imaging was also performed on urine samples (50 μL) collected from separate animals 1 h after i.v. injection of free dye or Cy-peptide analogues (n=4/treatment). Bruker MI software was used to process the fluorescence/bright light images and measure the fluorescence intensity in different ROIs. All the data were corrected to eliminate the organ or fluid auto-fluorescence.
Details of data set [3]: species or system BALB/c mice. The settings on record: mouse, in vivo, iv. On the procedure:
Pharmacokinetic study—BALB/c mice (Jackson Laboratory, Bar Harbor, Me.) were administered with ^89Zr-peptide or free ^89Zr (20 μCi, 100 μL) via tail-vein injections (n=4/condition). Blood samples (20 μL) were collected at various time intervals, using retro-orbital sinus puncture technique. The radioactivities were measured on Wallac Wizard 2 gamma counter (Perkin-Elmer, Waltham, Mass.). The pharmacokinetic models and parameters of ^89Zr-peptides and free ^89Zr, including the serum half-life and the plasma clearance, were estimated by fitting the data for compartmental model selection using PKSolver 2.0 software.

Data set [4] can be described thus: μPET/CT imaging and end-point biodistribution study of ^89Zr-peptides. It is filed as in vivo, BALB/c mice. On the procedure: μPET/CT imaging and biodistribution study—BALB/c mice were intravenously injected with different ^89Zr-peptide analogues (20 μCi, 100 μL). μPET/CT imaging was performed in animals with and without urine collection prior to the first imaging (n=4/analogue/condition). Whole-body images were acquired 1, 4, and 24 h after injection, using Inveon μPET/CT scanner (Siemens Medical Solutions, Malvern, Pa.). μPET/CT maximum […] projections were processed using Amide v1.0.4 and Inveon Research Workplace software. The radioactivities at different region of interest (ROI) were determined. For end-point biodistribution studies, the mice were euthanized 0.17, 1, 2, 5, and 7 days after treatment with ^89Zr-peptides (n=3/peptide analogue/time point). The radioactivities of the harvested organs were measured using the Wallac Wizard 2 gamma counter. The results were corrected from radioactive decay, and were expressed as a percentage of the injected dose (% ID) or percentage of injected dose per gram of tissue (% ID/g).

Data set [5] is described as follows: Toxicity profile in healthy animals (hematology, serum biochemistry, necropsy). It is filed as in vivo, BALB/c mice. The settings on record: for hematology (red blood cell, leukocyte, platelet counts, morphology) / histopathology of liver, spleen, heart, lungs, kidneys / serum liver enzymes (ALP, ALT, AST) / urea nitrogen/creatinine ratio: DM1, DM1-Bdd 0.75 mg/kg. The source says: At the end of a 3-week treatment, mice were euthanized. The organs/tissues were harvested, fixed in 10% neutral buffered formalin for 2 days. Bones were decalcified in a formic acid solution (Surgipath Decalcifier I; Leica Biosystems, Weltzar, Germany). The samples were then embedded in paraffin, sectioned (5 μm), and stained with H&E for examination by an ACVP board certified anatomic pathologist.
Hematology and biochemistry—Blood samples were collected via cardiac puncture. A complete blood count, including red blood cell, white blood cell, reticulocyte and platelet counts, with an automated differential leukocyte count, was performed using an IDEXX Procyte DX hematology analyzer (iDEXX, Westbrook, Me.). Blood smears were prepared, stained with modified Wright's stain, examined in a blinded fashion by a board-certified veterinary clinical pathologist (T. S.), and imaged using a Nikon Eclipse TE2000-U fluorescent microscope equipped with a photometrics CoolSNAP HQ^2 camera (Nikon Corporation, Tokyo, Japan). The blood was also centrifuged (1,500×G) for 15 min to obtain the serum for biochemical analysis using a Beckman Coulter AU680 analyzer (Beckman Coulter, Brea, Calif.).

Data set [6] can be described thus: Immunogenicity assay (plasma cytokines by ELISA). It is filed as in vivo, BALB/c mice. The settings on record: 5 mg/kg i.v., 4 h after injection. The method, then:
Immunogenicity assay—Female BALB/c mice were treated with a single dose of Bdd or LPS (5 mg/kg) via tail-vein injection (n=3/group). Mice administered with PBS were used as a negative control. Blood samples were collected 4 h later via retro-orbital sinus puncture technique, and the concentration of the innate immune and inflammatory cytokines IL1β, IL2, IL6, IL10, TNF-α, and INF-γ in plasma was measured with commercial sandwich enzyme-linked immunosorbent assay kits. ELISA assays were performed according to the manufacturer's instructions (Invitrogen, Carlsbad, Calif.).
For orientation: An ELISA detects its analyte on a solid surface through an enzyme-linked reagent.

The subject of the next data set is UMUC-3. The experiment in a line: Cell viability and cytotoxicity assay (CellTiter Glo, 72 h). The settings on record: UMUC-3, 72 h. It is filed as cell-based, human. The method, then: (§1) Cell viability and cytotoxicity assay—Cancer cells (3×10^3/well) were seeded on a flat bottom 96-well plate overnight. […] CellTiter Glo reagent (Promega, Madison, Wis.) was added in each well (50 μL). The luminescence generated was recorded using a microplate reader (Tecan US Inc., Morrisville, N.C.). The dose response curves were plotted, and the half maximal inhibitory concentrations (IC50 values) were calculated using Graph Pad Prism 6.0 software.
(In general: Cellular ATP, detected with luciferase, serves as a proxy for viable cell number.)

A further data set relates to Renca. Described as above. It is filed as cell-based, murine. The method, then:
as §1

Another data set concerns panel of BC cell lines. The data set is described as above. In kind it is cell-based. On the procedure:
as §1

The subject of data set [7] is Renca/GFP-Luc tumors in kidney capsule. As to the kind of experiment: Evaluation of DM1-Bdd for kidney cancer treatment (syngeneic orthotopic model). In kind it is in vivo, BALB/c mice. From the text:
The animals were monitored for tumor growth inhibition and survival as described above. Additional mice were used for histopathological analysis (n=4/group).
Slides were then counterstained with Hematoxylin.

Data set [8] deals with orthotopic human UMUC-3/GFP-Luc bladder tumors. The experiment in a line: Therapeutic efficacy of drug-Bdd conjugates for treating BC (orthotopic xenograft).
Procedure: Therapeutic efficacy of drug-Bdd conjugates for treating BC—Animals were orthotopically implanted with tumors as previously described. Briefly, the urine of 7- to 9-week-old female NSG mice (Jackson Laboratory, Bar Harbor, Me.) was remove through a sterile 24 G pediatric venous catheter (Dublin, Ireland). A trypsin solution (0.125%, 80 μL) was then delivered into the bladder, Subsequently. UMUC-3/GFP-Luc cells (4×10^4 cells) in culture media (50 μL) were transferred into the bladders and allowed for seeding. Tumor progression was monitored by bioluminescence imaging. Luciferin (3 mg) in PBS (100 μL) was given to the animals (via intraperitoneal injection) 15 min prior to performing imaging. […] The therapeutic efficacy was evaluated based on tumor growth inhibition (bioluminescence imaging) and long-term survival.
Where [9] appears, read: i.v. 0.75 mg/kg of drug content weekly for 3 weeks.
Setting [10] is: i.v. weekly for 3 weeks, CIS 10 mg/kg.

`Nc1ccn([C@@H]2O[C@H](CO)[C@@H](O)C2(F)F)c(=O)n1` [GEM, gemcitabine]: the “induction of KIM-1 and/or NGAL” value in [1] is reported as “continued induction”.
Consider Cyanine5.5, for which the “elimination route / main organ uptake by fluorescence imaging” value in data set [2] is given as “mainly taken up by the liver”.
Take `CC(=O)N(O)CCCCCNC(=O)CCC(=O)N(O)CCCCCNC(=O)CCC(=O)N(O)CCCCCNC(=S)Nc1ccc(NC(=S)NCCC(=O)N[C@H](CC(=O)O)C(=O)N[C@H](CC(=O)O)C(=O)NCCC(=O)N[C@H](CC(=O)O)C(=O)N[C@H](CC(=O)O)C(=O)NCCC(=O)N[C@H](CC(=O)O)C(=O)N[C@H](CC(=O)O)C(=O)NCCC(=O)N[C@H](CC(=O)O)C(=O)N[C@H](CC(=O)O)C(N)=O)cc1` [^89Zr-Bdd, metal not drawn] (HELM PEPTIDE1{[CC(=O)N(O)CCCCCNC(=O)CCC(=O)N(O)CCCCCNC(=O)CCC(=O)N(O)CCCCCNC(=S)Nc1ccc(NC(=S)[*:2])cc1].[bAla].[dD].[dD].[bAla].[dD].[dD].[bAla].[dD].[dD].[bAla].[dD].[dD].[am]}$$$$V2.0): the terminal half-life in [3] (BALB/c) was 31.8 min. The plasma clearance result in [3] is recorded as “rapid”. Also, in data set [4] (i.v., confirmed by absence of radioactivity in emptied bladders), the “time to excretion into the urine after i.v. administration” value is on record as ≤ 1 h. Moreover, in data set [4] (mouse, in vivo), the “ID found in kidneys” value was 15.1 % ID and the “ID found in kidneys after 7 days” value is 2.1 % ID. In addition, the “peptide in major organs or blood circulation” value in data set [4] (mouse, in vivo, iv) is given as “No peptide in major organs or blood circulation was detected”.
Turning to `COc1cc2cc(c1Cl)N(C)C(=O)C[C@H](OC(=O)[C@H](C)N(C)C(=O)CCSSCCC(=O)NCCC(=O)N[C@H](CC(=O)O)C(=O)N[C@H](CC(=O)O)C(=O)NCCC(=O)N[C@H](CC(=O)O)C(=O)N[C@H](CC(=O)O)C(=O)NCCC(=O)N[C@H](CC(=O)O)C(=O)N[C@H](CC(=O)O)C(=O)NCCC(=O)N[C@H](CC(=O)O)C(=O)N[C@H](CC(=O)O)C(N)=O)[C@]1(C)O[C@H]1[C@H](C)[C@@H]1C[C@@](O)(NC(=O)O1)[C@H](OC)/C=C/C=C(\C)C2` [DM1-Bdd] ([Mpa](X1)[βAla][dD][dD][βAla][dD][dD][βAla][dD][dD][βAla][dD][dD]-NH2), in data set [1] (3 days after i.v. administration), the “immunoreactivity of kidney sections for KIM-1 and NGAL compared to PBS” value is “no elevation of the immunoreactivity”. The “histologic examination of kidneys” value in [1] (3 days after i.v. drug administration, CIS 10 mg/kg, DM1-Bdd 0.75 mg/kg) was “did not reveal any abnormalities”. Moreover, the “time for urinary KIM-1 and NGAL to return to basal levels” value in [1] (single i.v. dose 0.75 mg/kg of drug content) is recorded as ≤ 3 days. The “urinary KIM-1 and NGAL levels” value in data set [1] (single i.v. dose 0.75 mg/kg of drug content, 1 day after injection) is “slightly increased”. Moreover, in data set [5] (setting [9]), the hepatotoxicity entry is recorded as “not hepatotoxic”. Moreover, in [5] (setting [10]), the “hematology (red blood cell, leukocyte, platelet counts, morphology)” value is listed as “did not affect”; the “histopathology of liver, spleen, heart, lungs, kidneys” value is reported as “no morphological evidence of injury”; the “serum liver enzymes (ALP, ALT, AST)” value is “no significant alteration”; the urea nitrogen/creatinine ratio entry is listed as “normal”.
As to `NCCC(=O)N[C@H](CC(=O)O)C(=O)N[C@H](CC(=O)O)C(=O)NCCC(=O)N[C@H](CC(=O)O)C(=O)N[C@H](CC(=O)O)C(=O)NCCC(=O)N[C@H](CC(=O)O)C(=O)N[C@H](CC(=O)O)C(=O)NCCC(=O)N[C@H](CC(=O)O)C(=O)N[C@H](CC(=O)O)C(N)=O` [Bdd] (HELM PEPTIDE1{[bAla].[dD].[dD].[bAla].[dD].[dD].[bAla].[dD].[dD].[bAla].[dD].[dD].[am]}$$$$V2.0; N-terminus assumed), the “inflammatory cytokine levels (IL-1β, IL-2, IL-6, IL-10, TNF-α, INF-γ) in plasma” value in data set [6] is reported as “no increase”.
`COc1cc2cc(c1Cl)N(C)C(=O)C[C@H](OC(=O)[C@H](C)N(C)C(=O)CCS)[C@]1(C)O[C@H]1[C@H](C)[C@@H]1C[C@@](O)(NC(=O)O1)[C@H](OC)/C=C/C=C(\C)C2` [DM1, N2′-deacetyl-N2′-(3-mercapto-1-oxopropyl)-maytansine]: in the data set on UMUC-3, the IC50 values result is “nanomolar (nM) range”; the “potency compared to other conventional chemotherapeutics” value was “more potent than cisplatin (CIS), doxorubicin (DOX) and mitomycin (MIT), and as effective as gemcitabine (GEM)”. Besides, in the data set with Renca, the “activity against Renca cell line” value is recorded as “effective”. The “potency relative to commonly used ITC drugs (MIT, DOX and CIS)” value in the data set with panel of BC cell lines was 100 fold. In data set [1], the “induction of KIM-1 and/or NGAL” value was “continued induction”. Further, the survival result in [7] (either i.v. or i.t., 0.75 mg/kg weekly) is reported as “died”. Moreover, in [7] (one week after completing the treatment course), the “histological examination of kidneys (tumor)” value was “large and accompanied with an infiltration of mononuclear cells”. For the same compound, in data set [5] (i.v. weekly for 3 weeks, DM1 0.75 mg/kg, CIS 10 mg/kg), the “muscle injury (CK activity)” value is on record as “induced muscle injury”. Also, in [5] (setting [10]), the “hematology (red blood cell, leukocyte, platelet counts, morphology)” value is “reticulocytosis without apparent anemia; also recorded: inflammatory response characterized by increased proportions of neutrophils, monocytes, and platelets”; the “histopathology of liver, spleen, heart, lungs, kidneys” value is “Increased splenic and hepatic EMH”; the “serum liver enzymes (ALP, ALT, AST)” value is on record as “increases”; the urea nitrogen/creatinine ratio entry was “increases”. Further, in data set [8] (setting [9]), the “animal survival compared to i.t. MIT” value was “prolonged animal survival” and the “tumor growth inhibition compared to i.t. MIT” value is given as “more effective in inhibiting tumor growth”. Further, in data set [8] (i.v. 0.75 mg/kg weekly for 3 weeks), the “overall survival after 100 days” value is given as 0%.
With `CO[C@@]12[C@H](COC(N)=O)C3=C(C(=O)C(C)=C(N)C3=O)N1C[C@@H]1N[C@@H]12` [MIT, Mitomycin], the “induction of KIM-1 and/or NGAL” value in [1] is “continued induction”.
In the case of `COc1cccc2c1C(=O)c1c(O)c3c(c(O)c1C2=O)C[C@@](O)(C(=O)CO)C[C@@H]3O[C@H]1C[C@H](N)[C@H](O)[C@H](C)O1` [DOX, Doxorubicin], in data set [8] (5 mg/kg of drug content weekly for 3 weeks), the animal survival result is given as “shorter life expectancy compared to the PBS control”. Further, the drug-induced mortality entry in data set [8] (DOX 5 mg/kg weekly) was “died prior to receiving the final dose”.
